{"source": "patent US20180242591A1", "about": "“Insect Repellent” (Evolva SA, priority 2015, published 2018)", "test_system": "female Aedes aegypti mosquitoes", "test": "In vitro repellency against mosquitoes, treated collagen membranes over blood-filled wells", "format": "in vivo", "details": "20% DEET in ethanol (positive control), 25 μL on membrane; probes over 20 minutes; five replicates", "experimental": "A laboratory trial was conducted to evaluate the repellency of santalol against female Aedes aegypti mosquitoes using an in vitro method. A 20% DEET positive control and untreated and ethanol negative controls were also assessed for comparison purposes. Test substances were applied to prepared collagen membranes placed over heated, blood-filled wells and exposed to mosquitoes. The number of mosquitoes probing each well was recorded at two minute intervals up to 20 minutes. Female adult laboratory reared Aedes aegypti mosquitoes (susceptible) were obtained from Benzon Research in Carlisle, Pa. 250 mosquitoes were used per replicate (5 replicates per test). Adult mosquitoes were 3-8 days old. Santalol was diluted in ethanol to 2% and 5% concentrations. A positive control consisting of 20% DEET in ethanol was prepared using stock solutions. Negative controls consisted of no treatment, and ethanol-only treatment. […] The number of mosquitoes probing each membrane was recorded every two minutes for twenty minutes. […] Percent repellency was calculated for each replicate using the total number of probes with the following formula: [formula] […] Average percent repellency and standard error (SE) were calculated across all five replicates. […]", "note": "“And” between values parts separate entries of the source, which are not always exact repeats. Identical values can stand only once.", "data": [{"smiles": "CCN(CC)C(=O)c1cccc(C)c1", "note": "[20% DEET, N,N-Diethyl-meta-toluamide]", "values": [{"measurement": "Average percent repellency ± SE", "result": "93.9% and 93.9 ± 2.3%"}]}]}
